Where “and” joins values, the source holds several entries; their conditions need not be identical. Equal values may be shown once. Entries after “also recorded” stand apart in the source; their conditions may differ. Read-outs that look alike come from different tables or passages of the source.
Key:
[1] = Plasma pharmacokinetics, single and multiple dose, noncompartmental; type: in vivo, human; conditions: for AUC(0-t): steady-state geometric mean AUC0–24
Protocol: (§1) All DLT analyses (phase 1a) were performed in patients enrolled in the study during cycle 1 and who either received 75% of the planned palazestrant doses or experienced a DLT during cycle 1. All PK analyses were performed in patients who received at least 1 dose of palazestrant and had adequate postbaseline PK samples for characterization of PK parameters. All safety analyses were performed and PFS assessed in patients who received at least 1 dose of palazestrant. Clinical response (CR or PR) was assessed in patients who received at least 1 cycle of palazestrant, had measurable disease at baseline, and had at least 1 postbaseline tumor assessment. CBR was assessed in patients who received at least 1 cycle of palazestrant, had at least 1 postbaseline tumor assessment, and started their first dose at least 24 weeks before data cutoff. Patients who discontinued study treatment without radiographic progression within 24 weeks from the first dose were not included in the CBR analysis. PK parameters were estimated using conventional noncompartmental methods. For CBR, estimates were accompanied by 2-sided 95% confidence intervals (95% CIs). For PFS, Kaplan–Meier analyses were used to determine medians, event-free rates, and 95% CIs. For all other outcomes, categorical data were analyzed using frequencies and percentages, and continuous data were analyzed using means (standard deviation) or medians (range), as appropriate.
Fig. 3 Steady-State Plasma Concentration–Time Profiles for Palazestrant (30 to 300 mg QD; Phase 1a/1b/2 data). Palazestrant was administered once daily at the indicated dose. Plasma samples were collected on cycle 2, day 1, at the indicated timepoints following administration to determine plasma drug concentration. Data presented are arithmetic mean and standard deviation; the heavy dashed black line represents the target (efficacious) exposure based on estradiol-supplemented preclinical models (Cmin: 226 ng/mL). Cmin, minimum plasma concentration; QD, once daily

[2] = tested on: ER+/HER2− advanced or metastatic breast cancer; experiment: Antitumor activity: RECIST v1.1 response, CBR, PFS, duration of treatment; type: in vivo, human
From the text: Key efficacy end points included assessment of clinical response according to RECIST v1.1; the clinical benefit rate (CBR), defined as the proportion of patients who achieved a complete response (CR), achieved a partial response (PR), or had stable disease (SD) for at least 24 weeks; and progression-free survival (PFS), defined as the time from the date of the first dose to disease progression or death. Biomarker assessments included changes from baseline in circulating tumor DNA (e.g., ESR1 variants) and tumor tissue biomarkers (ERα and Ki67).
as §1

ERα = ERα immunohistochemistry (Allred score) of tumor samples; type: in vivo, human; conditions: cycle 3 day 1 (N = 12), all dose levels; baseline 6.67 (N = 18); P = 0.13
Protocol: All immunohistochemistry analyses from tumor samples were performed at ICON Central Laboratories (Farmingdale, NY, USA) using the Ventana® BenchMark ULTRA™ automated staining instrument (Oro Valley, AZ, USA). Positive- and negative-control tissue and negative reagent controls were run for each marker, as well as low-ER controls for each run. Estrogen receptor levels were estimated as the number of positive tumor nuclei divided by the total number of tumor nuclei, expressed as a percentage for each receptor type. Evaluation of Ki67 was performed in accordance with Ki67 Working Group recommendations: 1) only nuclear staining was assessed as positive; 2) in cases of tumor heterogeneity (hot spots), 2 counts were performed and the average was reported; and 3) lymphocyte-rich areas were avoided when possible. Presence of activating ESR1 mutations (amino acid regions 370–381, 460–473, and 529–538) and their mutant allele fractions (MAFs) were determined in cell-free DNA (cfDNA), collected at baseline and at 8 weeks on treatment using the SafeSEQ Breast Cancer Panel (Sysmex Inostics, Baltimore, MD, USA).
In patients who underwent biomarker testing, samples collected on cycle 3 day 1 of treatment across all dose levels were compared to baseline samples to assess changes during treatment. […]

[3] = tested on: ER+/HER2− advanced or metastatic breast cancer; parameters: method as in ref 41 = [41]; 41. Lin NU, Borges VF, Patel MR, Okera M, Meisel J, Wesolowski R, et al. Results from the phase I/II study of OP-1250, an oral complete estrogen receptor (ER) antagonist (CERAN) and selective ER degra; conditions: cited from earlier work
ER = tested on: ER; parameters: method as in ref 22 = [22]; 22. Hamilton E, Meisel J, Alemany C, Borges V, Lin NU, Wesolowski R, et al. Preliminary phase 1/2 results from OP-1250-001, a study of OP-1250, an oral CERAN/SERD, in patients with advanced and/or met; conditions: based on estradiol-supplemented preclinical models; cited from earlier work
[4] = tested on: ESR1 wild-type and mutated human breast cancers; conditions: cited from earlier work
[5] = parameters: method as in PMID 38102750; conditions: preclinical; cited from earlier work
[6] = 60 mg/day, measurable disease (n = 26)
[7] = 120 mg/day, 66 patients with measurable disease
[8] = 120 mg/day, all patients (n = 86)
[9] = 120 mg/day, patients with ESR1 mutation at baseline (n = 36)
[10] = second- or third-line subanalysis, cancers with ESR1 mutations

Structure (SMILES): CCCN1CC(Oc2ccc([C@@H]3c4[nH]c5ccccc5c4C[C@@H](C)N3CC(C)(C)F)cc2)C1 [palazestrant, Palazestrant]
- steady-state plasma concentrations versus predicted efficacy threshold (226 ng/mL) ([1]; doses of ≥ 60 mg/day (60 and 120 mg/day)): reached the predicted efficacy threshold; also recorded: above the predicted efficacy threshold
- AUC(0-t) ([1]; human, in vivo, 60 mg): 4030 ng·h/mL
- AUC(0-t) ([1]; human, in vivo, 120 mg): 9210 ng·h/mL
- half-life ([1]; human, in vivo, 120 mg, terminal half-life): 192 h
- bioavailability ([1]; human, in vivo, po): readily bioavailable
- distribution ([1]; in vivo): extensive tissue distribution
- dose proportionality of exposure ([1]; in vivo): dose-proportional exposure
- elimination ([1]; in vivo): biphasic elimination
- best response observed in dose cohorts ([2]; 60 mg/day and 120 mg/day dose cohorts): Confirmed partial responses; also recorded: confirmed PR
- clinical benefit rate (CBR) ([2]; 60 mg/day, 13 patients with cancers with ESR1 mutations): 23.1%
- clinical benefit rate (CBR) ([2]; 60 mg/day, all evaluable patients (n = 26)): 19% and 19.2%
- confirmed PRs [2, 6]: 7.7%
- total PRs [2, 6]: 11.5%
- unconfirmed PR [2, 6]: 3.8%
- patients remaining on treatment for ≥ 1 year ([2]; 120 mg/day (n = 86)): 7.0%
- patients with a > 30% reduction in tumor size ([2]; 120 mg/day, 8/64): 12.5%
- patients with a reduction in tumor size (percentage change less than zero) ([2]; 120 mg/day, 25/64): 39.1%
- patients remaining on treatment for ≥ 6 months ([2]; 120 mg/day, 32/86): 37.2%
- confirmed PRs [2, 7]: 4.5%
- confirmed PRs including one cPR after the data cutoff date [2, 7]: 6.0%
- total PRs [2, 7]: 7.6%
- unconfirmed PRs [2, 7]: 3.0%
- clinical benefit rate (CBR) ([2]; 120 mg/day, all evaluable patients (n = 70)): 46% and 45.7%
- 6-month PFS rate [2, 8]: 39%
- median progression-free survival (95% CI) [2, 8]: 4.8 months
- CBR in patients who had a reduction in ESR1 mutations ([2]; 120 mg/day, ctDNA available, 8/11): 73%
- CBR in patients who did not have a reduction in ESR1 mutations ([2]; 120 mg/day, ctDNA available, 8/32): 25%
- 6-month PFS rate [2, 9]: 47%
- median progression-free survival (95% CI) [2, 9]: 5.6 months
- clinical benefit rate (CBR) ([2]; 120 mg/day, patients with cancers with ESR1 mutations (n = 29)): 58.6%
- ERα Allred score on treatment (ERα): 5.17
- median PFS ([3]; 49 patients, second- or third-line therapy with or without prior chemotherapy): 7.2 months
- CBR ([3]; 49 patients, second- or third-line therapy, overall): 48%
- CBR [3, 10]: 59%
- PFS [3, 10]: 7.3 months
- predicted efficacy threshold, target (efficacious) exposure, Cmin (ER): 226 ng/mL
- tumor shrinkage compared with fulvestrant and tamoxifen ([4]; preclinical xenograft models, ESR1 wild-type and mutated): greater tumor shrinkage
- preclinical antitumor activity relative to fulvestrant and elacestrant ([4]; regardless of ESR1 mutation status): superior
- pharmacokinetics relative to fulvestrant and elacestrant [5]: superior pharmacokinetics
